The values below come from US4956504A, “Novel spergualin-related compounds and process for producing the same” (Zaidan Hojin Biseibutsu Kagaku Kenkyu Kai, priority 1986, dated 1990).

For data set [1], the system named is mice. Description: Acute toxicity: administration amount causing acute death to mice. The format is in vivo. As to conditions: mouse, in vivo, ip. The method, then: A compound of the present invention was dissolved in a physiological saline solution in various concentrations. Each of the resulting solutions was intraperitoneally administered to one of CDF1 -SLC female mice (one group: two to three mice) in an amount of 0.1 ml per 10 g of body weight. The highest concentration of present compound in solution was 400 mg/10 ml/kg, and starting from this solution of highest concentration, solutions of lower concentrations were prepared each time at a common ratio of 2. The administration amount of present compound with the lowest concentration solution with which at least one mouse died was taken as an administration amount of acute toxicity.
(§1) In Tables and 5, a control compound is included. This compound is such that in the general formula [I], X is [drawing 59] R is --CH2 OH and both of R1 and R2 are --H.

Data set [2] concerns mouse leukemia L1210. Description: Life prolongation effect to mouse leukemia L1210. Type of data set: in vivo, mouse (CDF1-SLC female). As to conditions: once a day for nine consecutive days, 125 or more is effective, read-out: T/C × 100 (life prolongation percentage); for response vs control in vivo at 0.39 mg/kg: 0.39 mg/kg/day; for response vs control in vivo at 0.78 mg/kg: 0.78 mg/kg/day; for response vs control in vivo at 1.56 mg/kg: 1.56 mg/kg/day; for response vs control in vivo at 3.13 mg/kg: 3.13 mg/kg/day; for response vs control in vivo at 6.25 mg/kg: 6.25 mg/kg/day; for response vs control in vivo at 12.5 mg/kg: 12.50 mg/kg/day; for response vs control in vivo at 25 mg/kg: 25.00 mg/kg/day; for response vs control in vivo at 50 mg/kg: 50.00 mg/kg/day. As for the experimental part:
3. Life prolongation effect of present compound to mouse leukemia cells L1210 and its toxicity
1×10^5 /0.2 ml/mouse of mouse leukemia cells L1210 were intraperitoneally transplanted to test groups and a control group of CDF1 -SLC female mice (each group: four mice). A compound of the present invention was dissolved in a physiological saline solution in various concentrations and each of the resulting solutions was administered to one of the test groups once a day for nine consecutive days from the next day of the transplantation, in an amount of 0.1 ml/10 g (body weight)/day. The physiological saline solution was administered to the control group.
All the mice of the test groups and the control group were observed from the next day of the L1210 transplantation to examine their days of survival, and the average days of survival (T) of each test group and the average days of survival (C) of the control group were calculated. The life prolongation percentage of the present compound was expressed as (T/C)×100.
It is believed that a (T/C)×100 of 125 or more is effective.
as §1

For data set [3], the system named is antibody formation (anti-SRBC plaque-forming cells). Description: Inhibitory activity against antibody formation (anti-SRBC plaque-forming cells in spleen). The note with it: once a day for three consecutive days, minus shows an increase of antibody formation. Type of data set: in vivo, mouse (CDF1-SLC female). The method, then:
(b) Inhibitory activity against antibody formation
Test groups and a control group of CDF1 -SLC female mice (each group: five mice) were intravenously sensitized with 1×10^8 /0.2 ml of sheep red blood cells (SRBC). A compound of the present invention was dissolved in a physiological saline solution in various concentrations. Each of the resulting solutions was administered to one of the test groups once a day for three consecutive days from the next day of the sensitization, in an amount of 0.1 ml/10 g (body weight)/day. The physiological saline solution was administered to the control group.
In the fourth day from the sensitization, all the mice were killed and the number of anti-SRBC plaque-forming cells (PFC) in the spleen cells of each mouse was measured. From this number, the PFC number per 10^6 of spleen cells was calculated. The effect of the present compound was expressed as an inhibition percentage (%) of PFC number of test group as compared with control group. [formula]
as §1

Where [4] appears, read: Administration amount 1.56 mg/kg.
The mark [5] stands for this setting: Administration amount 6.25 mg/kg.

The structures appear in SMILES notation. Where a name gives a salt, the structure may show the parent alone.

As for `N=C(N)Nc1ccc(CCCC(=O)N[C@@H](CO)C(=O)NCCCCNCCCNC(=O)[C@H](N)c2ccccc2)cc1` [Compound No. 4, trihydrochloride], the “Administration amount causing acute death to mice” value in data set [1] is listed as 100 mg/kg. In data set [2], the response vs control in vivo at 0.39 mg/kg came out at 125%, the response vs control in vivo at 0.78 mg/kg was 149%, the response vs control in vivo at 1.56 mg/kg amounted to 195% and the response vs control in vivo at 3.13 mg/kg turned out to be 228%. For the same molecule, in data set [2], the response vs control in vivo at 6.25 mg/kg turned out to be 237%, the response vs control in vivo at 12.5 mg/kg was 243%, the response vs control in vivo at 25 mg/kg amounted to 247% and the response vs control in vivo at 50 mg/kg turned out to be 197%. Moreover, the “Inhibitory percentage (antibody formation, PFC number vs control group)” value (“Inhibitory percentage” below) in data set [3] (setting [4]) was found to be 68%. In addition, the “Inhibitory percentage” value in data set [3] (setting [5]) is listed as 95%.

`CC(C)C[C@H](NC(=O)[C@@H](N)CC(C)C)C(=O)NCCCNCCCCNC(=O)[C@H](CO)NC(=O)CCCc1ccc(NC(=N)N)cc1` [Compound No. 13, 10-{N-[4-(4-GP)butanoyl]-L-Ser}-1-L-Leu-L-Leu-1,5,10-TAD trihydrochloride]: the “Administration amount causing acute death to mice” value in data set [1] worked out at 100 mg/kg. Further, in data set [2], the response vs control in vivo at 0.39 mg/kg is 132%, the response vs control in vivo at 0.78 mg/kg was 149%, the response vs control in vivo at 1.56 mg/kg is 201% and the response vs control in vivo at 3.13 mg/kg was 283%. Also, in data set [2], the response vs control in vivo at 6.25 mg/kg is 247%, the response vs control in vivo at 12.5 mg/kg is 257%, the response vs control in vivo at 25 mg/kg was determined as 274% and the response vs control in vivo at 50 mg/kg was 303%. Moreover, the “Inhibitory percentage” value in data set [3] (setting [4]) is on record as 53%. Further, the “Inhibitory percentage” value in data set [3] (setting [5]) amounted to 88%.
